From US6461997B1, “Triazole sulfones having herbicidal activity” (Monsanto Technology LLC, priority 1999, dated 2002)

Columns and labels:
[1] = test system: LAMPU (purple deadnettle); assay: Pre-emergence herbicidal activity, cool season; assay type: in vivo, Lamium purpureum; details: lowest tested rate with 80% or greater inhibition; rates 300, 100, 30, 10 g/ha; about 14 days
Summary of the method: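 Seeds sown in sterilised fertilised topsoil received surface-applied compound in 50:50 acetone/water, typically at 300, 100, 30 and 10 g/ha, then greenhouse-grown at 30/21° C (warm-season species) or 18/13° C (cool-season species). Percent inhibition versus untreated plants was scored at about 14 days, giving GR80; an asterisk marks activity short of 80% at the top rate.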

ECHCG (barnyardgrass) = assay: Pre-plant incorporated (PPI) herbicidal activity, warm season; assay type: in vivo, Echinochloa crus-galli; details: for PPI activity GR80, ECHCG: pre-plant incorporated, lowest tested rate with 80% or greater inhibition, about 14 days
Procedure: (§1) In another set of tests, the pre-plant incorporated (PPI) activity of compounds of this invention was evaluated on the same species as for the pre-emergence tests described above. In the PPI tests the following procedure, designed to simulate PPI application, was used.
(§2) A pre-prepared topsoil mixture (described above) was placed in a pot and compacted to a depth of 1.0 to 1.25 cm from the top of the pot. Seeds of each of several monocotyledonous and dicotyledonous annual plant species were placed on top of the soil. A sufficient quantity of soil to cover the seeds and level fill the pot was weighed into an open container. A known amount of the test compound was dissolved or suspended in an organic solvent and applied by spraying to this cover soil. The cover soil was thoroughly mixed to distribute the test compound throughout the cover soil, and was then applied as a cover layer over the seeds. Untreated soil was used as a cover layer for control pots. After treatment the plants were placed in a greenhouse where they received 0.64 cm of overhead irrigation. All subsequent watering consisted of a light overhead mist and/or subirrigation as needed for germination and growth. Tables 9 and 10 below relate to warm season plant species which were placed after pre-emergence treatment in a greenhouse with a 30/21° C. day/night temperature regime. Tables 11 and 12 below relates to cool season plant species placed after pre-emergence treatment in a greenhouse or growth chamber with an 18/13° C. day/night temperature regime. Only the compounds of Examples 1, 6, 8, 11, 13 and 15-20 were included in PPI tests.
(§3) Approximately 14 days after planting and treating, the plants were observed and herbicidal efficacy recorded as percent inhibition by comparison with untreated plants.

[2] = test system: VERPE (creeping speedwell); assay: Pre-plant incorporated (PPI) herbicidal activity, cool season; assay type: in vivo, Veronica persicaria; details: for PPI activity GR80, VERPE: pre-plant incorporated, lowest tested rate with 80% or greater inhibition, about 14 days; for Percent inhibition VERPE: weed, PPI application
Procedure: as §1, §2, §3

[3] = test system: AEGCY (jointed goatgrass); assay: as above; assay type: in vivo, Aegilops cylindrica; details: for inhibition at 30 g/ha / inhibition at 100 g/ha / inhibition at 300 g/ha / inhibition at 900 g/ha: Aegilops cylindrica, read-out: Percent inhibition AEGCY; for inhibition at 30 g/ha / inhibition at 100 g/ha / inhibition at 300 g/ha / inhibition at 900 g/ha / Percent inhibition AEGCY: weed, PPI application; for PPI activity GR80, AEGCY: pre-plant incorporated, lowest tested rate with 80% or greater inhibition, about 14 days
Procedure: as §1, §2, §3

POAAN (annual bluegrass) = assay: as above; assay type: in vivo, Poa annua; details: weed, PPI application; for inhibition at 30 g/ha / inhibition at 100 g/ha / inhibition at 300 g/ha / inhibition at 900 g/ha: Poa annua, read-out: Percent inhibition POAAN
Procedure: as §1, §2, §3

[4] = test system: AGRRE (quackgrass (seedling)); assay: Post-emergence herbicidal activity, cool season; assay type: in vivo, Elymus repens; details: abraded plants sprayed at 300, 100, 30 and 10 g/ha; about 14 days after treatment
Summary of the method: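 Seedlings grown from seed in topsoil pots were treated 9 to 14 days after planting, foliage first abraded with garnet particles, then sprayed with test compound in 50:50 acetone/water at 300, 100, 30 and 10 g/ha (3,100 l/ha). Kept at 18/13° C. day/night, percent inhibition versus abraded unsprayed controls was scored about 14 days later and GR80 assigned.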

[5] = Echinochloa crus-galli, PPI application, 30 g/ha, read-out: Percent inhibition ECHCG
[6] = Echinochloa crus-galli, PPI application, 100 g/ha, read-out: Percent inhibition ECHCG
[7] = Echinochloa crus-galli, PPI application, 300 g/ha, read-out: Percent inhibition ECHCG
[8] = Echinochloa crus-galli, PPI application, 900 g/ha, read-out: Percent inhibition ECHCG

| SMILES | Pre-emergence activity GR80, LAMPU [1] | PPI activity GR80, ECHCG (ECHCG (barnyardgrass)) | PPI activity GR80, VERPE [2] | PPI activity GR80, AEGCY [3] | Post-emergence activity GR80, AGRRE [4] | Percent inhibition ECHCG (ECHCG (barnyardgrass); PPI application, 10 g/ha) | Percent inhibition ECHCG (ECHCG (barnyardgrass); PPI application, 30 g/ha) | Percent inhibition ECHCG (ECHCG (barnyardgrass); PPI application, 100 g/ha) | Percent inhibition ECHCG (ECHCG (barnyardgrass); PPI application, 300 g/ha) | Percent inhibition ECHCG (ECHCG (barnyardgrass); PPI application, 900 g/ha) | Percent inhibition VERPE ([2]; 10 g/ha) | Percent inhibition VERPE ([2]; 100 g/ha) | Percent inhibition VERPE ([2]; 300 g/ha) | Percent inhibition VERPE ([2]; 900 g/ha) | Percent inhibition AEGCY ([3]; 10 g/ha) | Percent inhibition AEGCY ([3]; 30 g/ha) | Percent inhibition AEGCY ([3]; 100 g/ha) | Percent inhibition AEGCY ([3]; 300 g/ha) | Percent inhibition AEGCY ([3]; 900 g/ha) | Percent inhibition POAAN (POAAN (annual bluegrass); 10 g/ha) | other results |
| --- | --- | --- | --- | --- | --- | --- | --- | --- | --- | --- | --- | --- | --- | --- | --- | --- | --- | --- | --- | --- | --- |
| CCN(CC)C(=O)n1cnc(S(=O)(=O)C(F)(F)Br)n1 [Example 1, 3-(bromodifluoromethylsulfonyl)-1-(N,N-diethylcarbamoyl)-1,2,4-triazole] | 30 g/ha | 30 g/ha | 30 g/ha | [empty] | [empty] | – | – | – | – | – | – | – | – | – | – | – | – | – | – | – | inhibition at 10 g/ha (ECHCG (barnyardgrass); Echinochloa crus-galli, PPI application, 10 g/ha, read-out: Percent inhibition ECHCG): 0%; inhibition at 30 g/ha (ECHCG (barnyardgrass); [5]): 20%; inhibition at 100 g/ha (ECHCG (barnyardgrass); [6]): 99%; inhibition at 300 g/ha (ECHCG (barnyardgrass); [7]): 100%; inhibition at 900 g/ha (ECHCG (barnyardgrass); [8]): 100%; inhibition at 30 g/ha ([3]; 30 g/ha): 0%; inhibition at 100 g/ha ([3]; 100 g/ha): 0%; inhibition at 300 g/ha ([3]; 300 g/ha): 40%; inhibition at 900 g/ha ([3]; 900 g/ha): 60%; inhibition at 30 g/ha (POAAN (annual bluegrass); 30 g/ha): 90%; inhibition at 100 g/ha (POAAN (annual bluegrass); 100 g/ha): 99%; inhibition at 300 g/ha (POAAN (annual bluegrass); 300 g/ha): 100%; inhibition at 900 g/ha (POAAN (annual bluegrass); 900 g/ha): 100% |
| CCSC(F)(F)S(=O)(=O)c1ncn(C(=O)N(CC)CC)n1 [Example 8, 1-(N,N-diethylcarbamoyl)-3-[difluoro(ethylthio)methylsulfonyl]-1,2,4-triazole] | [empty] | 30 g/ha | 100 g/ha | [empty] | [empty] | – | – | – | – | – | – | – | – | – | – | – | – | – | – | – | inhibition at 30 g/ha (ECHCG (barnyardgrass); [5]): 90%; inhibition at 100 g/ha (ECHCG (barnyardgrass); [6]): 100%; inhibition at 300 g/ha (ECHCG (barnyardgrass); [7]): 100%; inhibition at 900 g/ha (ECHCG (barnyardgrass); [8]): 100%; inhibition at 30 g/ha ([3]; 30 g/ha): 0%; inhibition at 100 g/ha ([3]; 100 g/ha): 50%; inhibition at 300 g/ha ([3]; 300 g/ha): 40%; inhibition at 900 g/ha ([3]; 900 g/ha): 20%; inhibition at 30 g/ha (POAAN (annual bluegrass); 30 g/ha): 100%; inhibition at 100 g/ha (POAAN (annual bluegrass); 100 g/ha): 100%; inhibition at 300 g/ha (POAAN (annual bluegrass); 300 g/ha): 100%; inhibition at 900 g/ha (POAAN (annual bluegrass); 900 g/ha): 100% |
| CCN(CC)C(=O)n1cnc(S(=O)(=O)C(F)(F)SCc2ccccc2)n1 [Example 10] | 100 g/ha | – | – | – | [empty] | 0% | 0% | 50% | 100% | 100% | 70% | 100% | 100% | 100% | 0% | 0% | 20% | 30% | 20% | 0% | Percent inhibition POAAN (POAAN (annual bluegrass); 30 g/ha): 10%; Percent inhibition POAAN (POAAN (annual bluegrass); 100 g/ha): 95%; Percent inhibition POAAN (POAAN (annual bluegrass); 300 g/ha): 100%; Percent inhibition POAAN (POAAN (annual bluegrass); 900 g/ha): 100% |
| CCN(CC)C(=O)n1cnc(S(=O)(=O)C(F)(F)SCC(=O)OC)n1 [Example 11] | 100 g/ha | * (activity observed, at least at highest rate, but <80% inhibition) | [empty] | [empty] | [empty] | 0% | 0% | 40% | 70% | 99% | 90% | 100% | 100% | 100% | 0% | 0% | 0% | 0% | 10% | 0% | Percent inhibition VERPE ([2]; 30 g/ha): 90%; Percent inhibition POAAN (POAAN (annual bluegrass); 30 g/ha): 0%; Percent inhibition POAAN (POAAN (annual bluegrass); 100 g/ha): 0%; Percent inhibition POAAN (POAAN (annual bluegrass); 300 g/ha): 0%; Percent inhibition POAAN (POAAN (annual bluegrass); 900 g/ha): 70% |
| CCN(CC)C(=O)n1cnc(S(=O)(=O)C(F)(F)SCCOC)n1 [Example 13] | 100 g/ha | 100 g/ha | 100 g/ha | [empty] | [empty] | 10% | 80% | 100% | 100% | 100% | 75% | 100% | 100% | 100% | 0% | 0% | 0% | 60% | 40% | 0% | Percent inhibition VERPE ([2]; 30 g/ha): 100%; Percent inhibition POAAN (POAAN (annual bluegrass); 30 g/ha): 50%; Percent inhibition POAAN (POAAN (annual bluegrass); 100 g/ha): 90%; Percent inhibition POAAN (POAAN (annual bluegrass); 300 g/ha): 100%; Percent inhibition POAAN (POAAN (annual bluegrass); 900 g/ha): 95% |
